# Like-named read-outs stand apart in the source and are kept apart here.
# Assays:
# [1] = biological target: HDAC1 (Homo sapiens (Human), UniProt Q13547); assay: Recombinant HDAC inhibition assay (HDAC1); assay type: biochemical
# Experimental: (§1) Recombinant HDACs 1, 2, and 3 (BPS Biosciences) were diluted to a concentration of 1 nM in HDAC buffer. 10 uL of this solution was added in 96-well format to black U-bottom plates. 10 uL of serially diluted inhibitor was added and a 2 hour pre incubation occurred at room temperature. 50 μM (final) of Acetylated Lysine-Aminomethyl coumarin-BOC in HDAC buffer solution was added and a second 2 hour incubation occurred at room temperature. 5 mg/mL trypsin, 1 μM trichostatin A solution in HDAC buffer was added to quench the reaction. Fluorescence was read at 360 (ex.)/460 (em.) using a Tecan M200 Pro. Data were normalized to control wells containing no inhibitor. IC50's were determined using GraphPad Prism's built in “log(inhibitor) vs. normalized response—Variable slope” function.
# [2] = biological target: HDAC3 (Homo sapiens (Human), UniProt O15379); assay: Recombinant HDAC inhibition assay (HDAC3); assay type: biochemical
# Sequence of HDAC3 (O15379 whole entry): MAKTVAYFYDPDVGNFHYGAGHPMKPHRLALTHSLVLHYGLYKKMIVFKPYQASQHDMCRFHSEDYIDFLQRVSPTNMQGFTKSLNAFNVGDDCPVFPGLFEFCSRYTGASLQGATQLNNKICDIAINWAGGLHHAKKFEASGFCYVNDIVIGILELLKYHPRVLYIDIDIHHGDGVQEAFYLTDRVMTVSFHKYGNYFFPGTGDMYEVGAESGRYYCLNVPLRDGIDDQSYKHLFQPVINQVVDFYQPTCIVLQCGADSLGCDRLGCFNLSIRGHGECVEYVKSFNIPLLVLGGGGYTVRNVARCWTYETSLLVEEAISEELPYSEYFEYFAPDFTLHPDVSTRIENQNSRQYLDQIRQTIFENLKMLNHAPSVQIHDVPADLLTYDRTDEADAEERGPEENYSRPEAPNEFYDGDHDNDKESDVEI
# Sequence of HDAC3 (Q9Y618 395-489 partner): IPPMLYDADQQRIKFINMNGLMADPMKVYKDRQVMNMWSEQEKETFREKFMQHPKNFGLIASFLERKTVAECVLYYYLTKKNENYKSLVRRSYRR
# Experimental: Recombinant HDACs 1, 2, and 3 (BPS Biosciences) were diluted to a concentration of 1 nM in HDAC buffer. 10 uL of this solution was added in 96-well format to black U-bottom plates. 10 uL of serially diluted inhibitor was added and a 2 hour pre incubation occurred at room temperature. 50 μM (final) of Acetylated Lysine-Aminomethyl coumarin-BOC in HDAC buffer solution was added and a second 2 hour incubation occurred at room temperature. 5 mg/mL trypsin, 1 μM trichostatin A solution in HDAC buffer was added to quench the reaction. […] Data were normalized to control wells containing no inhibitor. IC50's were determined using GraphPad Prism's built in “log(inhibitor) vs. normalized response—Variable slope” function.
# [3] = biological target: HDAC2 (Homo sapiens (Human), UniProt Q92769); assay: Recombinant HDAC inhibition assay (HDAC2); assay type: biochemical
# Sequence of HDAC2 (Q92769 whole entry): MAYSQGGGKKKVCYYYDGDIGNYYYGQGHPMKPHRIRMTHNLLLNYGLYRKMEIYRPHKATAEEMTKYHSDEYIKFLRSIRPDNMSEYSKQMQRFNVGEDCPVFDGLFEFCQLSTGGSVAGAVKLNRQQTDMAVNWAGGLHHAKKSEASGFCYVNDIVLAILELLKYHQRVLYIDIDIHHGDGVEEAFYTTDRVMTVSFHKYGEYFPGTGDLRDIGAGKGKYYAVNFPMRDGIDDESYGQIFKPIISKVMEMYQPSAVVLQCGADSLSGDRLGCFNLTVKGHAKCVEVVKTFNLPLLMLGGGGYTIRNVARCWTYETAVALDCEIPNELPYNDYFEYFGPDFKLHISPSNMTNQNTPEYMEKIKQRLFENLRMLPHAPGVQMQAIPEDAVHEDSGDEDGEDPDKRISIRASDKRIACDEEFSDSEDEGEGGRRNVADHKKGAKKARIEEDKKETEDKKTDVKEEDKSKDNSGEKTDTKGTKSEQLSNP
# Experimental: as §1
# [4] = system: HEK293 Lysate; assay: Hek293 lysate inhibition assay; assay type: biochemical
# Experimental: Hek293 cells were purchased from ATCC and cultured in Dulbecco's modified eagle's medium with glutamax and 10% (v/v) FBS. Cells were plated in 75 cm^2 flasks and incubated at 37° C. and 5% CO2 until −80% confluent. Cells were harvested, washed, and pelleted, lysed before protein concentration was determined using a Tecan M200 spectrophotometer in a BCA assay, and finally stored at −80° C. Upon need, lysate was thawed and diluted to 1 mg/mL of protein concentration with HDAC Buffer. […] The solution was buffered to a pH of 8 and addition of 1 mg/mL BSA was added. 10 μL of this diluted lysate solution was added in 96-well format black U-bottom plates. Serially diluted inhibitor solution was added and a 2 hour pre incubation occurred at 37° C. 50 μM (final) of Acetylated Lysine-Aminomethyl coumarin-BOC in HDAC buffer solution was added and a second 2 hour incubation occurred at 37° C. 5 mg/mL trypsin, 1 μM trichostatin A solution in HDAC buffer was added to quench the reaction. […] Data were normalized to control wells containing no inhibitor. IC50's were determined using GraphPad Prism's built in “log(inhibitor) vs. normalized response—Variable slope” function.
# [5] = system: TA97a and TA100 S. typhimurium; assay: mini-Ames test; details: 96-well format
# [6] = system: Raw246.7 macrophage cells; assay: NO production in activated macrophages; assay type: cell-based; details: 100 nM, LPS and LPS+ATP
# Text: Hypo-acetylation of histone H3 and H4 were also reversed with HDAC inhibitor treatments (yellow dash box). d.
# [7] = system: MV4-11 cells; assay: Western blot analysis of MV4-11 cells; assay type: cell-based
# Experimental: MV4-11 cells were cultured as described above. Cells were plated at 500 k cells/mL×3 mLs in clear, flat bottom 6 well plates. Cells were pre-incubated for 24 hours before addition of inhibitor at various concentrations. […] Cell pellets were lysed with RIPA buffer. RIPA buffer is comprised of 50 mM Tris Base, 150 mM NaCl, 5 mM EDTA, 0.1% (v/v) SDS, 0.5% (v/v) Sodium Deoxycholate, and 1% (v/v) Triton-x-100. After lysing, the suspension is ultra-sonicated and centrifuged at 15000 RPM for 15 minute at 4° C. 80 μL of supernatant was mixed with 40 μL of 15:85 (v/v) 3-mercaptoethanol:LDS solution. The mixture was heated at 90° C. for 15 minutes and stored for loading at −20° C. Prior to loading, the solution was flash thawed at 90° C. Lysates were run on Invitrogen NuPAGE 4-12% Bis-Tris 15 well gels at 170V for approximately 60 minutes in MES buffer. Gels were transferred to […] and ran at 30V for 180 minutes. Primary antibodies, purchased from Santa Cruz Biotechnology, were added in 5% (w/v) milk or 5% (w/v) Bovine Serum Albumin fraction V. The antibody was incubated with cellulose overnight at 4° C. before addition of secondary antibody in 5% (w/v) milk or 5% (w/v) Bovine Serum Albumin. Images were read using a GE ImageQuant LAS 4000. Global lighting adjustments of resulting images were made using Adobe Photoshop CC. Quantification was performed using Image Studio Lite 4.0.
# [8] = system: Raw264.7; assay: HMGB-1 secretion by macrophages; assay type: cell-based; details: LPS plus ATP challenge
# [9] = reported, cited from earlier work
# [10] = in human, reported; cited from earlier work
# Sequence of HDAC1 (Q13547 whole entry): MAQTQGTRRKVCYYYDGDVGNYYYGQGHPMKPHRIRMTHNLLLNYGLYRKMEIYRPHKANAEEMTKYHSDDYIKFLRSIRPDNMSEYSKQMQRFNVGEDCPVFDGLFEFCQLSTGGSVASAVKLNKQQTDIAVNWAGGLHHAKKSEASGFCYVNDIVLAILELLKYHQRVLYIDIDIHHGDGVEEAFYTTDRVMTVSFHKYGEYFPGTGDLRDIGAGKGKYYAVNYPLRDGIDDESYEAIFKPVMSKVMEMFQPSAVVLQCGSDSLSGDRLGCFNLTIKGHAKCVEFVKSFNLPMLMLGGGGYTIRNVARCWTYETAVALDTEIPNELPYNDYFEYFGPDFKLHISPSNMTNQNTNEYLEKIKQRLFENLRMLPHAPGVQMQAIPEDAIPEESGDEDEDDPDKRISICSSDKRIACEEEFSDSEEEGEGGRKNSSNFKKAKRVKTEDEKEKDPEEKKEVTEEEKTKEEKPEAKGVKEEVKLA
IC50 [2],Structure (SMILES),IC50 [4],other results
32.5 ± 1.15 nM,"CCCCCNNC(=O)c1ccc(CNC(=O)/C=C/c2ccccc2)cc1 [Compound 3d, N-(4-(2-pentylhydrazine-1-carbonyl)benzyl)cinnamamide]",691 ± 54.7 nM,IC50 [1]: 47.4 ± 16.8 nM; IC50 [3]: 99.6 ± 17.4 nM
569 ± 84.9 nM,"CCCCCCCNNC(=O)c1ccc(CNC(=O)c2ccccc2)cc1 [Compound 2h, N-(4-(2-heptylhydrazine-1-carbonyl)benzyl)benzamide]",2160 ± 896 nM,–
> 10000 nM,"CC(C)NNC(=O)c1ccc(CNC(=O)c2ccccc2)cc1 [Compound 2b, N-(4-(2-isopropylhydrazine-1-carbonyl)benzyl)benzamide]",> 10000 nM,–
294 ± 32.6 nM,"CCCCNNC(=O)/C=C/c1ccccc1 [Compound 1i, N′-butylcinnamohydrazide]",1440 ± 86.1 nM,–
–,Nc1ccc2cc3ccccc3cc2c1 [2-aminoanthracene],–,mutagenicity (mini-Ames) [5]: Ames positive
–,"CCCCNNC(=O)c1ccc(CNC(=O)c2ccccc2)cc1 [Compound 1l, N-(4-(2-butylhydrazine-1-carbonyl)benzyl)benzamide]",–,IC50 [1]: 18.9 ± 2.74 nM; IC50 [3]: 65.2 ± 10.4 nM
1550 ± 430 nM,"CCCCNNC(=O)c1cccnc1 [Compound 1d, N′-butylnicotinohydrazide]",4680 ± 909 nM,–
–,"O=C(CCCCCCC(=O)Nc1ccccc1)NO [vorinostat, suberanilohydroxamic acid, reference compound]",–,"NO production, acute treatment [6]: only inhibited LPS induced NO production but not ATP driven ones; increase in Hsp70 level [7]: observed; HMGB-1 secretion [8]: attenuated; t1/2 [9]: 0.2 h"
184 ± 74.5 nM,"CCCCCCNNC(=O)c1ccc(CNC(=O)c2ccccc2)cc1 [Compound 2j, N-(4-(2-hexylhydrazine-1-carbonyl)benzyl)benzamide]",550 ± 134 nM,–
157 ± 28.6 nM,"CCCCNNC(=O)c1ccc(OC)cc1 [Compound 1a, N′-butyl-4-methoxybenzohydrazide]",727 ± 10.8 nM,–
187.3 ± 0.6 nM,"CCNNC(=O)c1ccc(CNC(=O)c2ccccc2)cc1 [Compound 2l, N-(4-(2-ethylhydrazine-1-carbonyl)benzyl)benzamide]",427 ± 110 nM,–
–,"CCCNNC(=O)c1ccc(CNC(=O)c2ccccc2)cc1 [Compound 2d, N-(4-(2-propylhydrazine-1-carbonyl)benzyl)benzamide]",–,IC50 [1]: 13.2 ± 2.01 nM; IC50 [3]: 77.6 ± 9.52 nM
> 10000 nM,"CCCCCCCCCCNNC(=O)c1ccc(CNC(=O)c2ccccc2)cc1 [Compound 2k, N-(4-(2-decylhydrazine-1-carbonyl)benzyl)benzamide]",> 10000 nM,–
904 ± 154 nM,"CCCCNNC(=O)c1cccs1 [Compound 1f, N′-butylthiophene-2-carbohydrazide]",3460 ± 669 nM,–
–,CCCCc1nc2cc(/C=C/C(=O)NO)ccc2n1CCN(CC)CC [Pracinostat],–,"AUCinf [9]: 1,841 ng·h/mL; Cmax [9]: 2,632 ng/mL; t1/2 [9]: 2.4 h"
1090 ± 334 nM,"CCCCCCCCNNC(=O)c1ccc(CNC(=O)c2ccccc2)cc1 [Compound 2i, N-(4-(2-octylhydrazine-1-carbonyl)benzyl)benzamide]",> 10000 nM,–

IC50 [2],Structure (SMILES),IC50 [4],other results
> 10000 nM,"CCCCNNC(=O)c1cccc2ccccc12 [Compound 1j, N′-butyl-1-naphthohydrazide]",> 10000 nM,–
–,"CCCCCNNC(=O)c1ccc(CNC(=O)c2ccccc2)cc1 [Compound 2e, N-(4-(2-pentylhydrazine-1-carbonyl)benzyl)benzamide]",–,IC50 [1]: 20.2 ± 5.04 nM; IC50 [3]: 43.6 ± 33.2 nM
–,Cc1[nH]c2ccccc2c1CCNCc1ccc(/C=C/C(=O)NO)cc1 [panobinostat],–,t1/2 [10]: 16 h; increase in Hsp70 level [7]: observed; mutagenicity (mini-Ames) [5]: Ames positive; t1/2 ([9]; in rodent): 2.9 h; Cmax [9]: 116 ng/mL
150 ± 81.6 nM,"CCCCCCNNC(=O)c1ccc(CNC(=O)/C=C/c2ccccc2)cc1 [Compound 3e, N-(4-(2-hexylhydrazine-1-carbonyl)benzyl)cinnamamide]",1720 ± 139 nM,IC50 [1]: 81.4 ± 12 nM; IC50 [3]: 139 ± 29.9 nM
312 ± 42.8 nM,"CCCCNNC(=O)c1ccc(Oc2ccccc2)cc1 [Compound 1c, N′-butyl-4-phenoxybenzohydrazide]",1690 ± 298 nM,–
1530 ± 228 nM,"C/C=C/CNNC(=O)c1ccc(CNC(=O)c2ccccc2)cc1 [Compound 2a, (E)-N-(4-(2-(but-2-en-1-yl)hydrazine-1-carbonyl)benzyl)benzamide]",> 10000 nM,HMGB-1 secretion [8]: attenuated
5000 ± 372 nM,"CCCCNNC(=O)c1ccco1 [Compound 1g, N′-butylfuran-2-carbohydrazide]",> 10000 nM,–
84.4 ± 7.22 nM,"O=C(NCc1ccc(C(=O)NNCC2CCC2)cc1)c1ccccc1 [Compound 2m, N-(4-(2-(cyclobutylmethyl)hydrazine-1-carbonyl)benzyl)benzamide]",1880 ± 212 nM,–
> 10000 nM,"CC/C=N/NC(=O)c1ccc(CNC(=O)c2ccccc2)cc1 [Compound 2c, (E)-N-(4-(2-propylidenehydrazine-1-carbonyl)benzyl)benzamide]",> 10000 nM,–
19.7 ± 1.41 nM,"CCNNC(=O)c1ccc(CNC(=O)/C=C/c2ccccc2)cc1 [Compound 3a, N-(4-(2-ethylhydrazine-1-carbonyl)benzyl)cinnamamide]",171 ± 34.2 nM,IC50 [1]: 29.5 ± 10.7 nM; IC50 [3]: 76.6 ± 9.74 nM
–,"CCCCNNC(=O)c1ccc(CNC(=O)/C=C/c2ccccc2)cc1 [Compound 3c, N-(4-(2-butylhydrazine-1-carbonyl)benzyl)cinnamamide]",–,IC50 [1]: 60.2 ± 21 nM; IC50 [3]: 70 ± 26.4 nM
69.1 ± 0.52 nM,"O=C(NCc1ccc(C(=O)NNCCC(F)(F)F)cc1)c1ccccc1 [Compound 2f, N-(4-(2-(3,3,3-trifluoropropyl)hydrazine-1-carbonyl)benzyl)benzamide]",1230 ± 136 nM,–
39.93 ± 0.25 nM,"O=C(NCc1ccc(C(=O)NNCC2CC2)cc1)c1ccccc1 [Compound 2g, N-(4-(2-(cyclopropylmethyl)hydrazine-1-carbonyl)benzyl)benzamide]",1620 ± 196 nM,–
1360 ± 197 nM,"CCCCNNC(=O)c1cc2ccccc2o1 [Compound 1b, N′-butylbenzofuran-2-carbohydrazide]",1690 ± 38 nM,–
1890 ± 227 nM,"CCCCNNC(=O)CCc1ccccc1 [Compound 1h, N′-butyl-3-phenylpropanehydrazide]",> 10000 nM,–
